Laboratory results published in patent publication US7858738B2, “Synthetic human peptides and pharmaceutical compositions comprising them for the treatment of systemic lupus erythematosus” (Yeda Research and Development Co., Ltd., priority 2001, dated 2010).

Test system: BALB/c-derived LNC
Assay: In vivo inhibition of proliferation of BALB/c LNC to the human 16/6Id mAb
Parameters: species or system mice
Procedure: Because our aim was to test the inhibitory capacity of the peptides based on the CDR of the human 16/6Id autoantibody, it was of importance to find out whether peptides hCDR1 and hCDR3 are capable of inhibiting the priming to the whole molecule of the human 16/6Id mAb. To this end, BALB/c and SJL mice were primed with the human 16/6Id mAb (2 μg/mouse) in CFA intradermally in the hind footpads. […] Ten days following immunization, the mice were sacrificed and their LNCs were tested in vitro for their ability to proliferate to different concentrations (0.1-10 μg/well) of the human anti-DNA 16/6Id mAb.
The results are presented as maximum % inhibition of the proliferation to the immunizing human 16/6Id mAb of lymph node cells of mice immunized and treated with the peptides hCDR1 and hCDR3 as compared with mice that were immunized with the 16/6Id mAb but were not treated with the peptides.
In another experiment, BALB/c mice were immunized with 1 μg human 16/6Id in CFA, intradermally in the hind footpads, and either were injected with hCDR1 s.c., 300 μg/mouse in PBS, or were not further treated. Ten days later the mice were sacrificed and their LNC were tested for their ability to proliferate in vitro to the human 16/6Id. Thus, popliteal LNCs (0.5×10^6) were incubated in the presence of various concentrations (0.1-10 μg/well) of the human anti-DNA 16/6Id mAb. At the end of 4 days incubation, ^3H-thymidine was added to the cultures for the last 18 hours of incubation. Cells were then harvested and radioactivity counted.

GYYWSWIRQPPGKGEEWIG (Human) [hCDR1, 19-mer peptide based on the CDR1 of the heavy chain of the human 16/6Id mAb]
% inhibition of proliferation (50 μg/mouse s.c. in PBS, 16/6Id mAb 0.1 μg/well): 98% | % inhibition of proliferation (50 μg/mouse s.c. in PBS, 16/6Id mAb 5 μg/well): 73% | % inhibition of proliferation (50 μg/mouse s.c. in PBS, 16/6Id mAb 10 μg/well): 64% | % inhibition of proliferation (300 μg/mouse s.c. in PBS, 16/6Id mAb 0.1 μg/well): 47% | % inhibition of proliferation (300 μg/mouse s.c. in PBS, 16/6Id mAb 1 μg/well): 66% | % inhibition of proliferation (300 μg/mouse s.c. in PBS, 16/6Id mAb 5 μg/well): 76% | % inhibition of proliferation (300 μg/mouse s.c. in PBS, 16/6Id mAb 10 μg/well): 62% | % Inhibition of the proliferation of BALB/c-derived LNC to the human 16/6Id mAb (maximum % inhibition, 200 μg/mouse s.c. in PBS concomitant with priming): 88%
